Experimental findings from patent publication US8609690B2, “Aryl- and heteroarylcarbonyl derivatives of substituted nortropanes, medicaments containing such compounds and their use” (Boehringer Ingelheim International GmbH, priority 2008, dated 2013) are described below.

The target in the first test is T1, 11β-HSD 1 (Homo sapiens, UniProt P28845).
T1 construct: detecting cortisol generated from cortisterone by human liver microsomes; from tissue; host or cells: human liver microsomes
T1 sequence (P28845 whole entry): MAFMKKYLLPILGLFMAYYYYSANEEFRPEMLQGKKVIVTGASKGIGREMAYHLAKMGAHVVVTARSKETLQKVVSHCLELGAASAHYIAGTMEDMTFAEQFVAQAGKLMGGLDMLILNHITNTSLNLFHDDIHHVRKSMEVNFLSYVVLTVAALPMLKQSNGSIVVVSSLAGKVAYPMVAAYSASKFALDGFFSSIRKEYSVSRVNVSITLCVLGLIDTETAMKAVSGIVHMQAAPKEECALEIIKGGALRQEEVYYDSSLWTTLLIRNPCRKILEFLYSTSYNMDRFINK
The experiment in a line: In vitro inhibition of 11β-HSD 1, HTRF detection of cortisol generated by human liver microsomes. Type of test: biochemical. The note with it: 1 μM test compound, 100% indicates no inhibition, zero or below zero indicates complete inhibition (relative to carbenoxolone). The procedure: Briefly, compounds were incubated for 1 hour at 37° C. in Tris buffer (20 mM tris, 5 mM EDTA, pH 6.0) containing NADPH (200 μM) and cortisone (80 nM). Cortisol generated in the reaction is then detected with a competitive immunoassay, involving two HTRF conjugates: cortisol linked to XL665 and anti-cortisol antibody labeled with Europium cryptate. The incubation period for detection reaction was typically 2 hours. The amount of cortisol is determined by reading the time-resolved fluorescence of the wells (Ex 320/75 nm; Em 615/8.5 nm and 665/7.5 nm). The ratio of the two emission signals is then calculated (Em665*10000/Em615). […] Each assay also contained a calibration curve with cortisol to transform the fluorescent data into cortisol concentrations. Percent inhibition of each compound was determined relative to the carbenoxolone signal. In Table 2 the 11β-HSD 1 inhibitory activities at 1 μM concentration of test compound, determined as described above, of the compounds listed in Table 3 are compiled, wherein 100% indicates no inhibition and a value of zero or below zero indicates complete inhibition.
(In TR-FRET formats the signal depends on donor and acceptor labels being close together.)
Consider `O=C(c1ccc2[nH]ncc2c1)N1[C@@H]2CC[C@H]1C[C@@H](c1ccc(F)cc1)C2` [Example 180, endo-[3-(4-Fluoro-phenyl)-8-aza-bicyclo[3.2.1]oct-8-yl]-(1H-indazol-5-yl)-methanone], for which the “Inhibitory activity on 11β-HSD 1, % CTL” value is listed as −41 % CTL.

With `COC(=O)c1ccc(C(=O)N2[C@@H]3CC[C@H]2C[C@@H](c2ccc(C)cc2)C3)s1` [Example 9, endo-5-(3-p-Tolyl-8-aza-bicyclo[3.2.1]octane-8-carbonyl)-thiophene-2-carboxylic acid methyl ester], the “Inhibitory activity on 11β-HSD 1, % CTL” value is recorded as 87 % CTL.

As for `O=C(c1ccc(O)nc1)N1[C@@H]2CC[C@H]1C[C@@H](c1ccc(F)cc1)C2` [Example 102, endo-[3-(4-Fluoro-phenyl)-8-aza-bicyclo[3.2.1]oct-8-yl]-(6-hydroxy-pyridin-3-yl)-methanone], the “Inhibitory activity on 11β-HSD 1, % CTL” value is listed as 47 % CTL.

Take `O=C1NCc2cccc(C(=O)N3[C@@H]4CC[C@H]3C[C@@H](c3ccc(F)cc3)C4)c21` [Example 95, endo-7-[3-(4-Fluoro-phenyl)-8-aza-bicyclo[3.2.1]octane-8-carbonyl]-2,3-dihydro-isoindol-1-one]: the “Inhibitory activity on 11β-HSD 1, % CTL” value is recorded as 92 % CTL.

Take `O=C(c1nccc2ccccc12)N1[C@@H]2CC[C@H]1C[C@@H](c1ccc(F)cc1)C2` [Example 33, endo-[3-(4-Fluoro-phenyl)-8-aza-bicyclo[3.2.1]oct-8-yl]-isoquinolin-1-yl-methanone]: the “Inhibitory activity on 11β-HSD 1, % CTL” value amounted to 88 % CTL.

As for `O=C1NCCN1c1cccc(C(=O)N2[C@@H]3CC[C@H]2C[C@@H](c2ccc(F)cc2)C3)c1` [Example 60, endo-1-{3-[3-(4-Fluoro-phenyl)-8-aza-bicyclo[3.2.1]octane-8-carbonyl]-phenyl}-imidazolidin-2-one], the “Inhibitory activity on 11β-HSD 1, % CTL” value is given as 63 % CTL.

In the case of `O=C(c1cc(F)c(O)c(Cl)c1)N1[C@@H]2CC[C@H]1C[C@@H](c1ccc(F)cc1)C2` [Example 179, endo-(3-Chloro-5-fluoro-4-hydroxy-phenyl)-[3-(4-fluoro-phenyl)-8-aza-bicyclo[3.2.1]oct-8-yl]-methanone], the “Inhibitory activity on 11β-HSD 1, % CTL” value is −11 % CTL.

As for `Cc1ccc(C(=O)N2[C@@H]3CC[C@H]2C[C@@H](c2ccc(F)cc2)C3)cc1` [Example 101, endo-[3-(4-Fluoro-phenyl)-8-aza-bicyclo[3.2.1]oct-8-yl]-p-tolyl-methanone], the “Inhibitory activity on 11β-HSD 1, % CTL” value stood at 4 % CTL.

In the case of `CC(=O)c1ccc(C(=O)N2[C@@H]3CC[C@H]2C[C@@H](c2ccc(F)cc2)C3)cc1` [Example 128, endo-1-{4-[3-(4-Fluoro-phenyl)-8-aza-bicyclo[3.2.1]octane-8-carbonyl]-phenyl}-ethanone], the “Inhibitory activity on 11β-HSD 1, % CTL” value was found to be 79 % CTL.

Turning to `Cc1ccc([C@H]2C[C@H]3CC[C@@H](C2)N3C(=O)c2ccco2)cc1` [Example 17, endo-Furan-2-yl-(3-p-tolyl-8-aza-bicyclo[3.2.1]oct-8-yl)-methanone], the “Inhibitory activity on 11β-HSD 1, % CTL” value worked out at 93 % CTL.

With `CC(=O)Cc1ccc(C(=O)N2[C@@H]3CC[C@H]2C[C@@H](c2ccc(F)cc2)C3)cc1` [Example 58, endo-1-{4-[3-(4-Fluoro-phenyl)-8-aza-bicyclo[3.2.1]octane-8-carbonyl]-phenyl}-propan-2-one], the “Inhibitory activity on 11β-HSD 1, % CTL” value was 68 % CTL.

For `Cc1[nH]c2cc(C(=O)N3[C@@H]4CC[C@H]3C[C@@H](c3ccc(F)cc3)C4)ccc2c1C` [Example 52, endo-(2,3-Dimethyl-1H-indol-6-yl)-[3-(4-fluoro-phenyl)-8-aza-bicyclo[3.2.1]oct-8-yl]-methanone], the “Inhibitory activity on 11β-HSD 1, % CTL” value is 82 % CTL.

Regarding `O=C(c1n[nH]c2c1CCCC2)N1[C@@H]2CC[C@H]1C[C@@H](c1ccc(F)cc1)C2` [Example 23, endo-[3-(4-Fluoro-phenyl)-8-aza-bicyclo[3.2.1]oct-8-yl]-(4,5,6,7-tetrahydro-1H-indazol-3-yl)-methanone], the “Inhibitory activity on 11β-HSD 1, % CTL” value stood at 83 % CTL.

Take `Cc1ccc(C(=O)N2[C@@H]3CC[C@H]2C[C@@H](c2ccc(F)cc2)C3)cc1O` [Example 55, endo-[3-(4-Fluoro-phenyl)-8-aza-bicyclo[3.2.1]oct-8-yl]-(3-hydroxy-4-methyl-phenyl)-methanone]: the “Inhibitory activity on 11β-HSD 1, % CTL” value was determined as 31 % CTL.

Regarding `O=C(c1ccc(CO)cc1)N1[C@@H]2CC[C@H]1C[C@@H](c1ccc(F)cc1)C2` [Example 121, endo-[3-(4-Fluoro-phenyl)-8-aza-bicyclo[3.2.1]oct-8-yl]-(4-hydroxymethyl-phenyl)-methanone], the “Inhibitory activity on 11β-HSD 1, % CTL” value was −28 % CTL.

For the compound `O=C(c1ccccc1)N1[C@@H]2CC[C@H]1C[C@@H](c1ccc(F)cc1)C2` [Example 96, endo-[3-(4-Fluoro-phenyl)-8-aza-bicyclo[3.2.1]oct-8-yl]-phenyl-methanone], the “Inhibitory activity on 11β-HSD 1, % CTL” value was 33 % CTL.

Regarding `Cc1ccc([C@H]2C[C@H]3CC[C@@H](C2)N3C(=O)c2ccc3c(c2)OCCO3)cc1` [Example 138, endo-(2,3-Dihydro-benzo[1,4]dioxin-6-yl)-(3-p-tolyl-8-aza-bicyclo[3.2.1]oct-8-yl)-methanone], the “Inhibitory activity on 11β-HSD 1, % CTL” value worked out at 4 % CTL.

As for `N#Cc1ccc(C(=O)N2[C@@H]3CC[C@H]2C[C@@H](c2ccc(F)cc2)C3)cc1` [Example 105, endo-4-[3-(4-Fluoro-phenyl)-8-aza-bicyclo[3.2.1]octane-8-carbonyl]-benzonitrile], the “Inhibitory activity on 11β-HSD 1, % CTL” value is given as 58 % CTL.

With `Cc1nc(-c2cccc(C(=O)N3[C@@H]4CC[C@H]3C[C@@H](c3ccc(F)cc3)C4)c2)no1` [Example 88, endo-[3-(4-Fluoro-phenyl)-8-aza-bicyclo[3.2.1]oct-8-yl]-[3-(5-methyl-[1,2,4]oxadiazol-3-yl)-phenyl]-methanone], the “Inhibitory activity on 11β-HSD 1, % CTL” value amounted to 98 % CTL.

As for `O=C(c1ccc2c(c1)OCCO2)N1[C@@H]2CC[C@H]1C[C@@H](c1ccc3ccccc3c1)C2` [Example 157, endo-(2,3-Dihydro-benzo[1,4]dioxin-6-yl)-(3-naphthalen-2-yl-8-aza-bicyclo[3.2.1]oct-8-yl)-methanone], the “Inhibitory activity on 11β-HSD 1, % CTL” value was 38 % CTL.

Turning to `O=C(c1ccc2c(c1)OCCO2)N1[C@@H]2CC[C@H]1C[C@@H](c1ccc(OC(F)(F)F)cc1)C2` [Example 140, endo-(2,3-Dihydro-benzo[1,4]dioxin-6-yl)-[3-(4-trifluoromethoxy-phenyl)-8-aza-bicyclo[3.2.1]oct-8-yl]-methanone], the “Inhibitory activity on 11β-HSD 1, % CTL” value is listed as −5 % CTL.

As to `COC(=O)c1ccc([C@H]2C[C@H]3CC[C@@H](C2)N3C(=O)c2ccc3c(c2)OCCO3)cc1` [Example 154], the “Inhibitory activity on 11β-HSD 1, % CTL” value amounted to 59 % CTL.

Regarding `O=C(c1ccc2scnc2c1)N1[C@@H]2CC[C@H]1C[C@@H](c1ccc(F)cc1)C2` [Example 93, endo-Benzothiazol-5-yl-[3-(4-fluoro-phenyl)-8-aza-bicyclo[3.2.1]oct-8-yl]-methanone], the “Inhibitory activity on 11β-HSD 1, % CTL” value amounted to 38 % CTL.

As for `CC(=O)NCc1ccc(C(=O)N2[C@@H]3CC[C@H]2C[C@@H](c2ccc(F)cc2)C3)cc1` [Example 71, endo-N-{4-[3-(4-Fluoro-phenyl)-8-aza-bicyclo[3.2.1]octane-8-carbonyl]-benzyl}-acetamide], the “Inhibitory activity on 11β-HSD 1, % CTL” value is 41 % CTL.

With `O=C(c1ccc2c(c1)OCCO2)N1[C@@H]2CC[C@H]1C[C@@H](c1ccc(F)cc1)C2` [Example 3, endo-(2,3-Dihydro-benzo[1,4]dioxin-6-yl)-[3-(4-fluoro-phenyl)-8-aza-bicyclo[3.2.1]oct-8-yl]-methanone], the “Inhibitory activity on 11β-HSD 1, % CTL” value is given as −32 % CTL.

With `O=C(O)c1ccc([C@H]2C[C@H]3CC[C@@H](C2)N3C(=O)c2ccc3c(c2)OCCO3)cc1` [Example 158, endo-4-[8-(2,3-Dihydro-enzo[1,4]dioxine-6-carbonyl)-8-aza-bicyclo[3.2.1]oct-3-yl]-benzoic acid], the “Inhibitory activity on 11β-HSD 1, % CTL” value stood at 86 % CTL.

Regarding `CC(C)(C)Oc1ccc(C(=O)N2[C@@H]3CC[C@H]2C[C@@H](c2ccc(F)cc2)C3)cc1` [Example 49, endo-(4-tert-Butoxy-phenyl)-[3-(4-fluoro-phenyl)-8-aza-bicyclo[3.2.1]oct-8-yl]-methanone], the “Inhibitory activity on 11β-HSD 1, % CTL” value was determined as 67 % CTL.

Take `COc1cccc(C(=O)N2[C@@H]3CC[C@H]2C[C@@H](c2ccc(F)cc2)C3)c1` [Example 109, endo-[3-(4-Fluoro-phenyl)-8-aza-bicyclo[3.2.1]oct-8-yl]-(3-methoxy-phenyl)-methanone]: the “Inhibitory activity on 11β-HSD 1, % CTL” value is given as −33 % CTL.

With `O=C(c1ccco1)N1[C@@H]2CC[C@H]1C[C@@H](c1ccc(F)cc1)C2` [Example 34, endo-[3-(4-Fluoro-phenyl)-8-aza-bicyclo[3.2.1]oct-8-yl]-furan-2-yl-methanone], the “Inhibitory activity on 11β-HSD 1, % CTL” value is listed as 75 % CTL.

As to `COc1ccccc1C(=O)N1[C@@H]2CC[C@H]1C[C@@H](c1ccc(F)cc1)C2` [Example 110, endo-[3-(4-Fluoro-phenyl)-8-aza-bicyclo[3.2.1]oct-8-yl]-(2-methoxy-phenyl)-methanone], the “Inhibitory activity on 11β-HSD 1, % CTL” value is 87 % CTL.

The test is the same for the next values; noted with them: 1 μM test compound, 100% indicates no inhibition, zero or below zero indicates complete inhibition (relative to carbenoxolone), 1 µM.
For the compound `O=C(c1ccccn1)N1[C@@H]2CC[C@H]1C[C@@H](c1ccc(F)cc1)C2` [Example 18, endo-[3-(4-Fluoro-phenyl)-8-aza-bicyclo[3.2.1]oct-8-yl]-pyridin-2-yl-methanone], the “Inhibitory activity on 11β-HSD 1, % CTL” value was 97 % CTL.
